GI50 and TGI data for 17 compounds are collected here from PubChem BioAssay (NCI).

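Five concentrations, 48 hours, 96-well plates. GI50: concentration for 50% inhibition of growth. TGI marks complete inhibition of growth.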

Test systems include HCC-2998 colon; K-562 leukemia; HL-60(TB) leukemia; RXF 393 renal; SK-MEL-28 melanoma; SF-539 CNS; OVCAR-3 ovarian; TK-10 renal; KM12 colon; SR leukemia.
Common to all, as to test: NCI-60 cell line screen, 48 h

With `COC(=O)CCCCCN=Cc1c(O)c(O)c(C(C)C)c2cc(C)c(-c3c(C)cc4c(C(C)C)c(O)c(O)c(C=NCCCCCC(=O)OC)c4c3O)c(O)c12`, the GI50 was 2.15 µM in the assay on HCC-2998 colon; 1.07 µM in the assay with K-562 leukemia; 1.09 µM in the assay on HL-60(TB) leukemia; 0.851 µM with RXF 393 renal; 1.95 µM with SK-MEL-28 melanoma; 1.6 µM in the assay on SF-539 CNS. Moreover, the GI50 with OVCAR-3 ovarian is 1.27 µM; with TK-10 renal it was 1.15 µM; in the assay on KM12 colon, 1.28 µM; in the assay with SR leukemia it was 1.09 µM. Moreover, the TGI is above 32.5 µM in the assay with HCC-2998 colon; 6.03 µM in the assay on K-562 leukemia; 7.93 µM in the assay with HL-60(TB) leukemia; 4.65 µM in the assay on RXF 393 renal; above 32.5 µM with SK-MEL-28 melanoma; above 32.5 µM with SF-539 CNS. The TGI is above 32.5 µM with OVCAR-3 ovarian, above 32.5 µM with TK-10 renal, above 32.5 µM in the assay on KM12 colon and 9.61 µM with SR leukemia.
`COc1ccc2c(c1)[n+]([O-])c(/C(C)=N/NC(=O)CC#N)c[n+]2[O-]`: the TGI in the assay on HCC-2998 colon, with K-562 leukemia, in the assay with HL-60(TB) leukemia, in the assay on RXF 393 renal, with SK-MEL-28 melanoma and in the assay with SF-539 CNS was above 100 µM in each case. Besides, the TGI in the assay with OVCAR-3 ovarian, with TK-10 renal, in the assay on KM12 colon and in the assay on SR leukemia was above 100 µM throughout.
As for `N#C[C@@H]1C(n2ccc(N)nc2=O)O[C@H](CO)[C@H]1O` (some centres undefined), the GI50 was above 100 µM in the assay with HCC-2998 colon; 19.6 µM in the assay with K-562 leukemia; 29.4 µM in the assay with HL-60(TB) leukemia; above 100 µM in the assay with RXF 393 renal; 64.2 µM in the assay on SK-MEL-28 melanoma; above 100 µM with SF-539 CNS. For the same compound, the GI50 in the assay on OVCAR-3 ovarian was above 100 µM; with TK-10 renal, above 100 µM; in the assay with KM12 colon, above 100 µM; in the assay on SR leukemia it was 7.31 µM. Besides, the TGI with HCC-2998 colon, in the assay with K-562 leukemia, in the assay on HL-60(TB) leukemia, in the assay on RXF 393 renal, with SK-MEL-28 melanoma and with SF-539 CNS was above 100 µM throughout. The TGI in the assay with OVCAR-3 ovarian, with TK-10 renal, in the assay on KM12 colon and in the assay on SR leukemia was above 100 µM in each case.
Turning to `CC(=O)O[C@@H]1C2C(=O)OC(=O)C2C2CCC[C@]23O[C@H]13` (some centres undefined), the TGI with HCC-2998 colon, in the assay with K-562 leukemia, in the assay with HL-60(TB) leukemia, in the assay with RXF 393 renal, in the assay with SK-MEL-28 melanoma and in the assay on SF-539 CNS was above 100 µM in each case. The TGI in the assay on OVCAR-3 ovarian, in the assay with TK-10 renal, with KM12 colon and with SR leukemia was above 100 µM throughout.
Regarding `C=C=C(C(=O)OC)S(=O)c1ccc([N+](=O)[O-])cc1[N+](=O)[O-]` (centres undefined), the TGI with HCC-2998 colon is 31.2 µM; with K-562 leukemia, 46.3 µM; in the assay with HL-60(TB) leukemia it was 45.3 µM; with RXF 393 renal, above 68 µM; in the assay with SK-MEL-28 melanoma, above 70 µM; in the assay with SF-539 CNS, 55.3 µM. The TGI was 63.1 µM in the assay with OVCAR-3 ovarian, above 85.7 µM in the assay with TK-10 renal, above 72 µM in the assay with KM12 colon and 35.4 µM in the assay on SR leukemia.
`COc1cc(S(C)(=O)=O)ccc1Nc1nc2ccc(-c3ccc(NC(=O)[C@H](C)c4ccc(F)cc4)cc3)cn2n1`: the GI50 is above 100 µM with HCC-2998 colon; above 78.7 µM with K-562 leukemia; 12.9 µM with HL-60(TB) leukemia; above 48.5 µM in the assay on RXF 393 renal; above 100 µM with SK-MEL-28 melanoma; above 39.8 µM with SF-539 CNS. Besides, the GI50 with OVCAR-3 ovarian is above 100 µM; in the assay on TK-10 renal, above 100 µM; with KM12 colon, above 72.4 µM; in the assay with SR leukemia it was 0.211 µM. The TGI with HCC-2998 colon, with K-562 leukemia, with HL-60(TB) leukemia, in the assay on RXF 393 renal, with SK-MEL-28 melanoma and with SF-539 CNS was above 100 µM throughout. In addition, the TGI in the assay with OVCAR-3 ovarian, with TK-10 renal, in the assay with KM12 colon and with SR leukemia was above 100 µM throughout.
With `Nc1nc(CCC(=O)Nc2cccc(C(F)(F)F)c2)cc(-c2ccc3ccccc3c2)n1`, the TGI with HCC-2998 colon, in the assay on K-562 leukemia, with HL-60(TB) leukemia, in the assay on RXF 393 renal, with SK-MEL-28 melanoma and in the assay on SF-539 CNS was above 100 µM each time. The TGI in the assay on OVCAR-3 ovarian, in the assay on TK-10 renal, in the assay with KM12 colon and in the assay on SR leukemia was above 100 µM each time.
As for `CCOC(=O)COS(=O)(=O)C(F)(F)F`, the TGI in the assay on HCC-2998 colon, in the assay on K-562 leukemia, with HL-60(TB) leukemia, with RXF 393 renal, with SK-MEL-28 melanoma and with SF-539 CNS was above 100 µM each time. Besides, the TGI with OVCAR-3 ovarian is above 100 µM; in the assay with TK-10 renal, above 100 µM; in the assay with KM12 colon, above 100 µM; in the assay with SR leukemia, 49.1 µM.
As to `CC1CCN(CC(=O)N2c3ccccc3Sc3cc4ccccc4cc32)CC1`, the TGI in the assay with HCC-2998 colon, in the assay with K-562 leukemia, in the assay with HL-60(TB) leukemia, with RXF 393 renal, with SK-MEL-28 melanoma and with SF-539 CNS was above 100 µM throughout. In addition, the TGI in the assay on OVCAR-3 ovarian, with TK-10 renal, in the assay on KM12 colon and in the assay on SR leukemia was above 100 µM each time.
For `CC(=O)Nc1ccc(S(=O)(=O)NNC(=O)c2cccnc2Nc2ccc(Cl)cc2)cc1`, the GI50 in the assay on HCC-2998 colon is 8.38 µM; in the assay with K-562 leukemia it was 8.5 µM; in the assay with HL-60(TB) leukemia it was 9.67 µM; in the assay with RXF 393 renal, 37.3 µM; with SK-MEL-28 melanoma, 23.4 µM; with SF-539 CNS it was 15.5 µM. For the same compound, the GI50 in the assay with OVCAR-3 ovarian was 3.73 µM; with TK-10 renal it was 25.3 µM; in the assay on KM12 colon it was 4.19 µM; in the assay with SR leukemia, 6.35 µM. For the same compound, the TGI is above 100 µM in the assay on K-562 leukemia; above 100 µM in the assay on HL-60(TB) leukemia; above 100 µM with RXF 393 renal; above 100 µM in the assay on SK-MEL-28 melanoma; 75.5 µM with SF-539 CNS; above 100 µM in the assay on OVCAR-3 ovarian. The TGI in the assay with TK-10 renal, with KM12 colon and in the assay on SR leukemia was above 100 µM in each case.
On to `CC(=O)OC1[C@H]2c3cc4c(cc3CN3CCC(=C[C@@H]1O)C23)OCO4` (some centres undefined), for which the TGI in the assay on HCC-2998 colon, with K-562 leukemia, with HL-60(TB) leukemia, in the assay on RXF 393 renal, in the assay with SK-MEL-28 melanoma and in the assay with SF-539 CNS was above 100 µM in each case. Moreover, the TGI in the assay with OVCAR-3 ovarian, in the assay on TK-10 renal, with KM12 colon and in the assay on SR leukemia was above 100 µM in each case.
Regarding `C/C(=N\NC(N)=S)c1nc2ccc(Cl)cc2[nH]1`, the GI50 with HCC-2998 colon is 4.1 µM; in the assay on K-562 leukemia it was 2.37 µM; with HL-60(TB) leukemia, 1.55 µM; in the assay on RXF 393 renal it was 4.59 µM; in the assay with SK-MEL-28 melanoma it was 5.7 µM; in the assay on SF-539 CNS, 2.45 µM. Moreover, the GI50 with OVCAR-3 ovarian is 2.85 µM; with TK-10 renal it was 2.6 µM; in the assay on KM12 colon, 2.03 µM; in the assay with SR leukemia it was 1.29 µM. Moreover, the TGI is 16.4 µM with HCC-2998 colon; above 50 µM in the assay on K-562 leukemia; 19.9 µM in the assay with HL-60(TB) leukemia; 28.7 µM with RXF 393 renal; 35.9 µM with SK-MEL-28 melanoma; 9.7 µM with SF-539 CNS. Further, the TGI in the assay on OVCAR-3 ovarian turned out to be 14.1 µM; with TK-10 renal, 20.7 µM; in the assay with KM12 colon it was 16.2 µM; with SR leukemia, 15.9 µM.
As for `CCOc1ccccc1NC(=O)CCc1nc(=S)[nH][nH]1`, the TGI in the assay with HCC-2998 colon, with K-562 leukemia, in the assay with HL-60(TB) leukemia, with RXF 393 renal, with SK-MEL-28 melanoma and in the assay on SF-539 CNS was above 100 µM throughout. In addition, the TGI with OVCAR-3 ovarian, in the assay with TK-10 renal, in the assay on KM12 colon and in the assay with SR leukemia was above 100 µM each time.
As for `C=C1C(=O)OC2/C=C(\C=O)CC/C=C(\C)C(O)C[C@@H]12` (some centres undefined), the TGI with HCC-2998 colon is 31.7 µM; in the assay with K-562 leukemia, above 36.1 µM; in the assay with HL-60(TB) leukemia it was above 21.4 µM; in the assay on RXF 393 renal it was 7.46 µM; in the assay on SK-MEL-28 melanoma, 15.7 µM; in the assay with SF-539 CNS it was 27.2 µM. Further, the TGI was 14.5 µM in the assay with OVCAR-3 ovarian, 24.7 µM with TK-10 renal, 18.5 µM in the assay with KM12 colon and above 27.6 µM with SR leukemia.
Take `O=C1CC(=O)OC(c2ccc([N+](=O)[O-])cc2)O1`: the GI50 with HCC-2998 colon was 1.76 µM; in the assay on K-562 leukemia it was 2.56 µM; in the assay on HL-60(TB) leukemia, 2.01 µM; with RXF 393 renal, 1.77 µM; with SK-MEL-28 melanoma, 1.93 µM; with SF-539 CNS, 1.98 µM. The GI50 in the assay with OVCAR-3 ovarian is 1.77 µM; in the assay on TK-10 renal, 1.92 µM; in the assay with KM12 colon it was 1.95 µM; in the assay with SR leukemia, 2.62 µM. Also, the TGI is 3.18 µM in the assay on HCC-2998 colon; above 100 µM with K-562 leukemia; 5.51 µM in the assay with HL-60(TB) leukemia; 3.23 µM in the assay on RXF 393 renal; 4.08 µM with SK-MEL-28 melanoma; 4.3 µM in the assay on SF-539 CNS. In addition, the TGI with OVCAR-3 ovarian was determined as 3.37 µM; in the assay on TK-10 renal it was 4.53 µM; in the assay with KM12 colon it was 4.03 µM; in the assay with SR leukemia, 9.09 µM.
As to `O=C(OC[C@H]1O[C@@H](OC(=O)c2cc(O)c(O)c(O)c2)[C@H](OC(=O)c2cc(O)c(O)c(O)c2)[C@@H](OC(=O)c2cc(O)c(O)c(O)c2)[C@@H]1OC(=O)c1cc(O)c(O)c(O)c1)c1cc(O)c(O)c(O)c1`, the TGI in the assay on HCC-2998 colon was 12.3 µM; with K-562 leukemia, above 100 µM; with HL-60(TB) leukemia it was above 100 µM; in the assay on RXF 393 renal, 31.2 µM; in the assay with SK-MEL-28 melanoma it was 56.7 µM; in the assay with SF-539 CNS it was 16.3 µM. The TGI is 17.7 µM in the assay on OVCAR-3 ovarian, 66 µM with TK-10 renal, 6.65 µM in the assay on KM12 colon and above 100 µM with SR leukemia.
With `O=C1c2ccccc2-n2c1nc1ccccc1c2=O`, the TGI was above 90.4 µM in the assay with HCC-2998 colon; above 44.6 µM in the assay with K-562 leukemia; 41.4 µM in the assay on HL-60(TB) leukemia; above 81.6 µM with RXF 393 renal; 50.7 µM in the assay on SK-MEL-28 melanoma; 43.3 µM with SF-539 CNS. For the same compound, the TGI in the assay on OVCAR-3 ovarian was 30.2 µM; in the assay with TK-10 renal it was above 100 µM; with KM12 colon it was above 67.1 µM; with SR leukemia, above 100 µM.
